Biological target: T1, AmPDH (pyranose dehydrogenase, PDH) (Macropsalliota meleagris, UniProt Q3L245)
T1 construct: gene pdh1; for crystals deglycosylated with alpha-mannosidase (577 residues)
Experiment: anaerobic reduction of enzyme FAD, absorption spectra
Assay type: biochemical
Details: 20 µM oxidized enzyme, 20 µM substrate, 100 mM NaH2PO4 pH 7.5, 25 °C; C2 accessible

T1 sequence (Q3L245 26-602): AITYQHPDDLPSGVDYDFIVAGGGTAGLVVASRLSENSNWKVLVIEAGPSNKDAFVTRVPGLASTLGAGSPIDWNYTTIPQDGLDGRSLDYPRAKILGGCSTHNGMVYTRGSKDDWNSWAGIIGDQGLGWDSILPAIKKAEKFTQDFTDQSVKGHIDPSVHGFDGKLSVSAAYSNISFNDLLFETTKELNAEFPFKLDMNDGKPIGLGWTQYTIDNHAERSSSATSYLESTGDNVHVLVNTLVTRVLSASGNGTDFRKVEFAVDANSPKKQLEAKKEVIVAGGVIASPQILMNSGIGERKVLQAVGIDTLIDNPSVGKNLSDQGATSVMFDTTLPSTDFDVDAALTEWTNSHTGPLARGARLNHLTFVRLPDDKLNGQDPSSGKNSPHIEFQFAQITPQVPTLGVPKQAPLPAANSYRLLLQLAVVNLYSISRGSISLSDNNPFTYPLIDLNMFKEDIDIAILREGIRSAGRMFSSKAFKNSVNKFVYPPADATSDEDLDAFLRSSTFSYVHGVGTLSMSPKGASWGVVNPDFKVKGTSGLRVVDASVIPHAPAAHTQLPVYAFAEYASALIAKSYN

OC[C@H]1OC(O)[C@H](O)[C@@H](F)[C@@H]1O (stereo partly shown)
anaerobic reduction of enzyme FAD, absorption spectra: showing that AmPDH was rapidly reduced, presumably by a hydride moiety at glucose C2
